According to patent publication US11596650B2, “Composition and method for the treatment of type 2 diabetes” (Vector Vitale IP LLC, priority 2019, dated 2023):

Experiment: Accumulation of metals in liver and kidney tissues, intraperitoneal administration to intact rats
Assay type: in vivo, rat
Method: Animals are placed in cages, 4 per cage, with free access to food/water. […] After the last injection, a half of the animals are maintained on hunger (for 12 hours) with free access to water. Upon expiration of this time period, the animals are taken out of the experiment. The second half of the animals continues to have free access to food/water for a further 7 days. On day 6 after the last injection, the animals are maintained on hunger (for 12 hours) with free access to water. Upon expiration of this time period, the animals are taken out of the experiment.
The total kidney, liver and muscle homogenates were prepared as follows. Organ excision and homogenization were carried out at a temperature of 1-4° C. […] The volume of the used buffer in ml was 5 times larger than the mass of isolated organs in grams. The isolated liver was perfused with chilled saline (0.9% NaCl) via the portal vein using a syringe. The minced liver was transferred to a homogenizer with a finely ground Teflon pestle and homogenized in chilled buffer. An isolated pair of kidneys was perfused with chilled saline, released from adipose tissue and minced with scissors. The minced tissue was transferred to a homogenizer with a finely ground Teflon pestle and homogenized in chilled buffer. The total kidney and liver homogenates were centrifuged at 600 g for 15 minutes. […]

Which results are given for `CC(=O)[O-].CC(=O)[O-].[Zn+2]` [Zn acetate, Zinc acetate]?
Zinc in the kidney and liver tissues (day 1 and day 7 after discontinuation of the substances): significantly increased; All other analyzed metals (manganese and copper) in kidney and liver tissues (intact rats, intraperitoneal): within the same concentrations as in the control group
